PMC6354023, “A phase I study of the HDM2 antagonist SAR405838 combined with the MEK inhibitor pimasertib in patients with advanced solid tumours” (British Journal of Cancer, 2018)
Where two headings read alike, the source gives them in different places.

Columns and labels:
[1] = Pharmacokinetics of pimasertib (plasma concentrations) in combination; assay type: in vivo, human; conditions: for AUC(0-t) / Cmax / half-life / Tmax: human, plasma, oral; for AUC(0-t): read-out: Pimasertib AUC0–12, mean ± SD; for Cmax: read-out: Pimasertib Cmax, mean ± SD; for half-life: read-out: Pimasertib t1/2 (converted); for Tmax: read-out: Pimasertib tmax, median (range)
Source text: (§1) Blood samples were collected on Days 1 (for pimasertib only), 2, 3, 8 and 15 of Cycle 1, on Days 1 and 2 of Cycle 2, and on Day 1 of Cycles 3 and 4, to determine the whole-blood and plasma concentrations of SAR405838 and pimasertib, respectively.

[2] = Safety assessments: adverse events (NCI-CTCAE v4.03), laboratory abnormalities; assay type: in vivo, human; conditions: of 26 treated patients, in combination
Procedure: Safety was assessed by the evaluation of AEs, DLTs, changes in vital signs, ECOG PS, physical examinations,12-lead electrocardiograms, determination of LVEF, ophthalmological examinations and clinical laboratory tests (including haematology, coagulation, blood chemistry and urinalysis).

[3] = Pharmacokinetics of SAR405838 (whole-blood concentrations) in combination; assay type: in vivo, human; conditions: SAR405838 and pimasertib administered in combination
Source text: as §1

[4] = parameters: method as in doi:10.1016/S0959-8049(12)72401-2; conditions: cited from earlier work
[5] = system: pERK; experiment: pERK levels in PMA-stimulated PBMCs by flow cytometry; assay type: in vivo, human
Procedure: MIC-1 protein concentrations were measured in plasma samples using an analytically validated enzyme-linked immunosorbent assay (Quantikine® Human GDF-15 immunoassay). pERK levels were determined by evaluating median value changes in response to ex vivo stimulation with or without phorbol myristate acetate (PMA) over time in whole-blood samples (CD 45^+ and lymphocyte populations) by flow cytometry (BD FACSCanto™ II instrument). Stimulated pERK levels were calculated as percentage (PMA-dimethylsulphoxide [DMSO])/DMSO).

[6] = DL1 SAR405838 200 mg QD + pimasertib 45 mg BID, C1D2
[7] = DL1 SAR405838 200 mg QD + pimasertib 45 mg BID, C2D1
[8] = DL2a SAR405838 200 mg QD + pimasertib 60 mg QD, C1D1
[9] = DL2a SAR405838 200 mg QD + pimasertib 60 mg QD, C1D2
[10] = DL2b SAR405838 300 mg QD + pimasertib 45 mg BID, C1D1
[11] = DL2b SAR405838 300 mg QD + pimasertib 45 mg BID, C1D2
[12] = DL2b SAR405838 300 mg QD + pimasertib 45 mg BID, C2D1
[13] = DL3a SAR405838 300 mg QD + pimasertib 60 mg QD, C1D1
[14] = DL3a SAR405838 300 mg QD + pimasertib 60 mg QD, C1D2
[15] = DL3a SAR405838 300 mg QD + pimasertib 60 mg QD, C2D1
[16] = DL1 SAR405838 200 mg QD + pimasertib 45 mg BID, C1D1
[17] = DL2a SAR405838 200 mg QD + pimasertib 60 mg QD, C2D1

For `O=C(NC[C@H](O)CO)c1ccncc1Nc1ccc(I)cc1F` [pimasertib], the “Pimasertib tmax, median (range)” value [1, 6] was 1.5 [0.5–2] (7) h, the “Pimasertib tmax, median (range)” value [1, 7] was 1.5 [0.5–1.5] (6) h and the “Pimasertib AUC0–12, mean ± SD” value [1, 8] was 1120 ± 410 (4; 37) ng.h/mL. The “Pimasertib tmax, median (range)” value [1, 8] was 1.5 [0.5–1.5] (4) h, the “Pimasertib AUC0–12, mean ± SD” value [1, 9] was 1130 ± 422 (4; 37) ng.h/mL and the “Pimasertib tmax, median (range)” value [1, 10] was 1.5 [0.5–1.5] (7) h. For the same compound, the “Pimasertib tmax, median (range)” value [1, 11] was 1.5 [1.5–2] (7) h, the “Pimasertib tmax, median (range)” value [1, 12] was 1.5 [0.5–2] (6) h and the “Pimasertib t1/2” value [1, 13] was 5.25 ± 1.83 (7; 35) h. The “Pimasertib tmax, median (range)” value [1, 14] was 1.5 [0.5-2] (7) h, the “Pimasertib tmax, median (range)” value [1, 15] was 1.5 [0.5–1.5] (5) h and the “Exposure change with dose increase (33%)” value ([1]; between DL1/DL2b (pimasertib 45 mg BID) and DL2a/DL3a (pimasertib 60 mg BID)) was “resulted in pimasertib exposure increase”. For the same compound, the AUC(0-t) [1, 16] was 755 ± 382 ng·h/mL, the Cmax [1, 16] was 218 ± 108 ng/mL and the half-life [1, 16] was 286 ± 70.2 min. The Tmax [1, 16] was 0.5 h, the AUC(0-t) [1, 6] was 689 ± 324 ng·h/mL and the Cmax [1, 6] was 200 ± 102 ng/mL. For the same compound, the AUC(0-t) [1, 7] was 862 ± 350 ng·h/mL, the Cmax [1, 7] was 226 ± 70.6 ng/mL and the Cmax [1, 8] was 301 ± 69.9 ng/mL. For the same compound, the half-life [1, 8] was 323 ± 16.6 min, the Cmax [1, 9] was 303 ± 134 ng/mL and the Tmax [1, 9] was 1 h. For the same compound, the AUC(0-t) [1, 17] was 1040 ± 504 ng·h/mL, the Cmax [1, 17] was 269 ± 134 ng/mL and the AUC(0-t) [1, 10] was 779 ± 594 ng·h/mL. It also gave a Cmax [1, 10] of 184 ± 109 ng/mL, a half-life [1, 10] of 283 ± 83.4 min and an AUC(0-t) [1, 11] of 684 ± 367 ng·h/mL. The Cmax [1, 11] was 182 ± 110 ng/mL, the AUC(0-t) [1, 12] was 532 ± 166 ng·h/mL and the Cmax [1, 12] was 147 ± 93.8 ng/mL. It also gave an AUC(0-t) [1, 13] of 935 ± 469 ng·h/mL, a Cmax [1, 13] of 221 ± 98.3 ng/mL and a Tmax [1, 13] of 1 h. The AUC(0-t) [1, 14] was 917 ± 390 ng·h/mL, the Cmax [1, 14] was 200 ± 84.4 ng/mL and the AUC(0-t) [1, 15] was 765 ± 314 ng·h/mL. The Cmax [1, 15] was 243 ± 65.4 ng/mL, the “Patients with dose modification, reduction or omission” value [2] was 18 patients and the “PK in combination compared with PK as monotherapy” value [3] was “similar”. For the same compound, the “Recommended phase II dose, monotherapy” value ([4]; BID) was 60 mg, the “MTD, monotherapy, QD regimen” value ([4]; once daily) was 90 mg and the “DLTs, monotherapy” value ([4]; phase I dose-escalation trial) was “skin rash, acneiform dermatitis, ocular events and stomatitis”. The “MTD, monotherapy, BID regimen” value ([4]; twice daily) was 60 mg, the “Time pERK inhibition was maintained” value [5] was 4 h and the pERK inhibition ([5]; C1D1, C1D2 and C2D1, at or around tmax of pimasertib, at most DLs) was ≥ 80%.
